Values quoted from earlier work, collected in patent publication US20110048980A1, “Fatty Acid Oxidation Inhibitors Treating Hyperglycemia and Related Disorders” (Symcopeia Company, priority 2007, published 2011).

Tests used:
[1] = pioglitazone added to other glucose lowering drugs, equivalent glucose-lowering
[2] = in vivo

CN(CCOc1ccc(CC2SC(=O)NC2=O)cc1)c1ccccn1 (stereo not shown) [rosiglitazone]
CHD events, relative risk (IGT patients, not statistically reduced, trend): 1.37 | increase in incidence of CHF (pre-diabetic population): 7 fold

CCc1ccc(CCOc2ccc(CC3SC(=O)NC3=O)cc2)nc1 (stereo not shown) [pioglitazone]
increase in risk of congestive heart failure (CHF) [1]: 2-3 fold

COc1ccccc1OCC(O)CN1CCN(CC(=O)Nc2c(C)cccc2C)CC1 (stereo not shown) [Ranolazine, ranolazine]
QT interval effect [2]: causes QT interval prolongation
